{"source": "patent US11345710B2", "about": "“Imidazo[1,2-b]pyrimido[4,5-d]pyridazin-5(6H)-ones and the use thereof” (IMPACT THERAPEUTICS (SHANGHAI), INC, priority 2017, dated 2022)", "key": {"[1]": {"test_system": "patients with advanced solid tumors", "conditions": "cited from earlier work"}, "LoVo cells": {"test_system": "LoVo cells", "assay": "MTT based cell viability assay on LoVo cells", "conditions": "Homo sapiens, 72 h, read-out: IC50, growth inhibition on LoVo cells"}, "Wee1 kinase (h)": {"target": "Wee1 kinase (h) (Homo sapiens, UniProt P30291)", "sequence (P30291 whole entry)": "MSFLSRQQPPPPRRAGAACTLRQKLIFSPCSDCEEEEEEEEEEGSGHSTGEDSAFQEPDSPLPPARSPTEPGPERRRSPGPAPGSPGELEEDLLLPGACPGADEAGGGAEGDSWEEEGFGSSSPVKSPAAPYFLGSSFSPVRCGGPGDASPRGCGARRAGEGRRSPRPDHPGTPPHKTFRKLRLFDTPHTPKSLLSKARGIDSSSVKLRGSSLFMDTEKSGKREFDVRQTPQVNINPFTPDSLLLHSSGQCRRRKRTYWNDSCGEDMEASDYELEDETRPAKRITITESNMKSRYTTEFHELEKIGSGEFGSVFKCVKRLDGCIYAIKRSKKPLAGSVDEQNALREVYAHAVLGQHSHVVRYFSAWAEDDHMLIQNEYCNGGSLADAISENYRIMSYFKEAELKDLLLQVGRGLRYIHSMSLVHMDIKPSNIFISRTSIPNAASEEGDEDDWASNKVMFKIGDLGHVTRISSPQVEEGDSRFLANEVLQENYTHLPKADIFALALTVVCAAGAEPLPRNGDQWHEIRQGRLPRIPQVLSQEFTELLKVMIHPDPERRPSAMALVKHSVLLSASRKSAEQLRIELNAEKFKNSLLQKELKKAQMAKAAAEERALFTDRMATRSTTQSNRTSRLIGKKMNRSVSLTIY", "assay": "Wee1 kinase (h) detection method, [γ-33P]-ATP filter assay", "assay_type": "biochemical", "conditions": "10 μM ATP, 40 minutes at room temperature", "outline": "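Radiometric filter-binding assay with human Wee1 in 20 mM Tris/HCl pH 8.5, 0.2 mM EDTA, 500 μM peptide substrate, 10 mM Mg acetate, 10 μM [γ-33P]-ATP; compounds at final 1, 0.1 or 0.01 μM. Reaction 40 min at room temperature, stopped with 0.5% phosphoric acid, spotted on P30 filtermat, scintillation counted, duplicates.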"}, "NCI-H1299 cells": {"test_system": "NCI-H1299 cells", "assay": "MTT based cell viability assay on NCI-H1299 cells", "conditions": "Homo sapiens, read-out: IC50, growth inhibition on NCI-H1299 cells", "outline": "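NCI-H1299 cells (1000/well) were plated overnight, then given a seven-point serial compound dilution plus DMSO control for 3 d at 37 °C, 5% CO2. Viability was read by MTT (0.5 mg/mL, 4 h, DMSO-solubilised) at 552/630/690 nm. IC50 came from a sigmoidal fit of survival versus concentration.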"}, "[2]": {"conditions": "of 176 evaluable patients, alone or in combination with chemotherapy"}, "[3]": {"conditions": "72 h, NCI-H1299 cells, 3 d, MTT"}}, "note": "Read-outs that look alike come from different tables or passages of the source.", "data": [{"smiles": "C=CCn1c(=O)c2cnc(Nc3ccc(N4CCN(C)CC4)cc3)nc2n1-c1cccc(C(C)(C)O)n1", "note": "[AZD1775]", "values": [{"measurement": "response rate", "setting": "[1]; TP53 wild-type patients (n=33)", "value": 12, "unit": "%"}, {"measurement": "safety and tolerability", "setting": "[1]; alone or in combination with chemotherapy, at a certain dose", "value": "safe and tolerable"}, {"measurement": "partial response", "setting": "[1]; [2]", "value": 10, "unit": "%"}, {"measurement": "stable disease as the best response", "setting": "[1]; [2]", "value": 53, "unit": "%"}, {"measurement": "response rate", "setting": "[1]; patients with TP53 mutation (n=19)", "value": 21, "unit": "%"}, {"measurement": "IC50", "setting": "LoVo cells; LoVo cells, 3 d, MTT", "value": 154, "unit": "nM"}, {"measurement": "Inh. (%) of Wee1 kinase", "setting": "Wee1 kinase (h); C 0.01 μm", "value": 28, "unit": "%"}, {"measurement": "IC50", "setting": "NCI-H1299 cells; [3]", "value": 116, "unit": "nM"}]}, {"smiles": "Cc1cc(Nc2ncc3c(=O)n(-c4c(C)cccc4Cl)n4ccnc4c3n2)ccc1N1CCN(C)CC1", "note": "[Example 16, 6-(2-chloro-6-methylphenyl)-2-((3-methyl-4-(4-methylpiperazin-1-yl)phenyl)amino)imidazo[1,2-b]pyrimido[4,5-d]pyridazin-5(6H)-one]", "values": [{"measurement": "IC50", "setting": "LoVo cells; LoVo cells, 3 d, MTT", "value": 424, "unit": "nM"}, {"measurement": "Inh. (%) of Wee1 kinase", "setting": "Wee1 kinase (h); C 0.01 μm", "value": 22, "unit": "%"}, {"measurement": "Inh. (%) of Wee1 kinase", "setting": "Wee1 kinase (h); C 0.1 μm", "value": 73, "unit": "%"}, {"measurement": "Inh. (%) of Wee1 kinase", "setting": "Wee1 kinase (h); C 1 μm", "value": 93, "unit": "%"}, {"measurement": "IC50", "setting": "NCI-H1299 cells; [3]", "value": 365, "unit": "nM"}]}, {"smiles": "Cc1cc(Nc2ncc3c(=O)n(-c4c(Cl)cccc4Cl)n4ccnc4c3n2)cc(C)c1N1CCN(C)CC1", "note": "[Example 4, 6-(2,6-dichlorophenyl)-2-((3,5-dimethyl-4-(4-methylpiperazin-1-yl)phenyl)amino)imidazo[1,2-b]pyrimido[4,5-d]pyridazin-5(6H)-one]", "values": [{"measurement": "IC50", "setting": "LoVo cells; LoVo", "value": 339, "unit": "nM"}, {"measurement": "Inh. (%) of Wee1 kinase", "setting": "Wee1 kinase (h); C 0.01 μm", "value": 16, "unit": "%"}, {"measurement": "Inh. (%) of Wee1 kinase", "setting": "Wee1 kinase (h); C 0.1 μm", "value": 73, "unit": "%"}, {"measurement": "Inh. (%) of Wee1 kinase", "setting": "Wee1 kinase (h); C 1 μm", "value": 96, "unit": "%"}, {"measurement": "IC50", "setting": "NCI-H1299 cells; NCI-H1299, 72 h", "value": 383, "unit": "nM"}]}, {"smiles": "Cc1cc(Nc2ncc3c(=O)n(-c4c(C)cccc4F)n4ccnc4c3n2)ccc1N1CCN(C)CC1", "note": "[Example 14, 6-(2-fluoro-6-methylphenyl)-2-((3-methyl-4-(4-methylpiperazin-1-yl)phenyl)amino)imidazo[1,2-b]pyrimido[4,5-d]pyridazin-5(6H)-one]", "values": [{"measurement": "IC50", "setting": "LoVo cells; LoVo cells, 3 d, MTT", "value": 871, "unit": "nM"}, {"measurement": "Inh. (%) of Wee1 kinase", "setting": "Wee1 kinase (h); C 1 μm", "value": 93, "unit": "%"}, {"measurement": "IC50", "setting": "NCI-H1299 cells; [3]", "value": 587, "unit": "nM"}]}, {"smiles": "CN(C)C1CCN(c2ccc(Nc3ncc4c(=O)n(-c5c(Cl)cccc5Cl)n5ccnc5c4n3)cc2Cl)CC1", "note": "[Example 35, 6-(2,6-dichlorophenyl)-2-((3-chloro-4-(4-(dimethylamino)piperidin-1-yl)phenyl)amino)imidazo[1,2-b]pyrimido[4,5-d]pyridazin-5(6H)-one]", "values": [{"measurement": "IC50", "setting": "LoVo cells; LoVo", "value": 302, "unit": "nM"}, {"measurement": "Inh. (%) of Wee1 kinase", "setting": "Wee1 kinase (h); C 0.01 μm", "value": 4, "unit": "%"}, {"measurement": "Inh. (%) of Wee1 kinase", "setting": "Wee1 kinase (h); C 1 μm", "value": 96, "unit": "%"}, {"measurement": "IC50", "setting": "NCI-H1299 cells; NCI-H1299, 72 h", "value": 182, "unit": "nM"}]}, {"smiles": "CN1CCN(c2ccc(Nc3ncc4c(=O)n(-c5c(Cl)cccc5Br)n5ccnc5c4n3)cc2Cl)CC1", "note": "[Example 47, 6-(2-bromo-6-chlorophenyl)-2-((3-chloro-4-(4-methylpiperazin-1-yl)phenyl)amino)imidazo[1,2-b]pyrimido[4,5-d]pyridazin-5(6H)-one]", "values": [{"measurement": "IC50", "setting": "LoVo cells; LoVo cells, 3 d, MTT", "value": 370, "unit": "nM"}, {"measurement": "Inh. (%) of Wee1 kinase", "setting": "Wee1 kinase (h); C 1 μm", "value": 96, "unit": "%"}, {"measurement": "IC50", "setting": "NCI-H1299 cells; [3]", "value": 562, "unit": "nM"}]}, {"smiles": "Cc1cc(Nc2ncc3c(=O)n(-c4c(F)cccc4Cl)n4ccnc4c3n2)cc(C)c1N1CCN(C)CC1", "note": "[Example 11, 6-(2-chloro-6-fluorophenyl)-2-((3,5-dimethyl-4-(4-methylpiperazin-1-yl)phenyl)amino)imidazo[1,2-b]pyrimido[4,5-d]pyridazin-5(6H)-one]", "values": [{"measurement": "IC50", "setting": "LoVo cells; LoVo cells, 3 d, MTT", "value": 266, "unit": "nM"}, {"measurement": "Inh. (%) of Wee1 kinase", "setting": "Wee1 kinase (h); C 1 μm", "value": 93, "unit": "%"}, {"measurement": "IC50", "setting": "NCI-H1299 cells; [3]", "value": 555, "unit": "nM"}]}, {"smiles": "Cc1cn2c(n1)c1nc(Nc3ccc(N4CCC(N(C)C)CC4)c(C)c3)ncc1c(=O)n2-c1c(Cl)cccc1Cl", "note": "[Example 58, 6-(2,6-dichlorophenyl)-2-((3-methyl-4-(4-(dimethylamino)piperidin-1-yl)phenyl)amino)-9-methylimidazo[1,2-b]pyrimido[4,5-d]pyridazin-5(6H)-one]", "values": [{"measurement": "IC50", "setting": "LoVo cells; LoVo cells, 3 d, MTT", "value": 242, "unit": "nM"}, {"measurement": "Inh. (%) of Wee1 kinase", "setting": "Wee1 kinase (h); C 0.01 μm", "value": 9, "unit": "%"}, {"measurement": "IC50", "setting": "NCI-H1299 cells; [3]", "value": 151, "unit": "nM"}]}, {"smiles": "Cc1cc(Nc2ncc3c(=O)n(-c4c(C)cccc4Cl)n4ccnc4c3n2)cc(F)c1N1CCN(C)CC1", "note": "[Example 54, 6-(2-chloro-6-methylphenyl)-2-((3-fluoro-5-methyl-4-(4-methylpiperazin-1-yl)phenyl)amino)imidazo[1,2-b]pyrimido[4,5-d]pyridazin-5(6H)-one]", "values": [{"measurement": "IC50", "setting": "LoVo cells; LoVo cells, 3 d, MTT", "value": 637, "unit": "nM"}, {"measurement": "Inh. (%) of Wee1 kinase", "setting": "Wee1 kinase (h); C 1 μm", "value": 91, "unit": "%"}, {"measurement": "IC50", "setting": "NCI-H1299 cells; [3]", "value": 419, "unit": "nM"}]}, {"smiles": "Cc1cc(Nc2ncc3c(=O)n(-c4c(C)cccc4Cl)n4ccnc4c3n2)cc(Cl)c1N1CCN(C)CC1", "note": "[Example 55, 6-(2-chloro-6-methylphenyl)-2-((3-chloro-5-methyl-4-(4-methylpiperazin-1-yl)phenyl)amino)imidazo[1,2-b]pyrimido[4,5-d]pyridazin-5(6H)-one]", "values": [{"measurement": "IC50", "setting": "LoVo cells; LoVo cells, 3 d, MTT", "value": 560, "unit": "nM"}, {"measurement": "Inh. (%) of Wee1 kinase", "setting": "Wee1 kinase (h); C 0.01 μm", "value": 0, "unit": "%"}, {"measurement": "Inh. (%) of Wee1 kinase", "setting": "Wee1 kinase (h); C 0.1 μm", "value": 46, "unit": "%"}, {"measurement": "Inh. (%) of Wee1 kinase", "setting": "Wee1 kinase (h); C 1 μm", "value": 89, "unit": "%"}, {"measurement": "IC50", "setting": "NCI-H1299 cells; [3]", "value": 663, "unit": "nM"}]}, {"smiles": "Cc1cc(Nc2ncc3c(=O)n(-c4c(Cl)cccc4Cl)n4ccnc4c3n2)ccc1N1C[C@@H](C)N(C(C)C)[C@@H](C)C1", "note": "[Example 34, 6-(2,6-dichlorophenyl)-2-((3-methyl-4-((3S,5R)-4-isopropyl-3,5-dimethylpiperazin-1-yl)phenyl)amino)imidazo[1,2-b]pyrimido[4,5-d]pyridazin-5(6H)-one]", "values": [{"measurement": "IC50", "setting": "LoVo cells; LoVo", "value": 236, "unit": "nM"}, {"measurement": "Inh. (%) of Wee1 kinase", "setting": "Wee1 kinase (h); C 0.01 μm", "value": 21, "unit": "%"}, {"measurement": "IC50", "setting": "NCI-H1299 cells; NCI-H1299, 72 h", "value": 219, "unit": "nM"}]}, {"smiles": "CN1CCN(c2ccc(Nc3ncc4c(=O)n(-c5c(F)cccc5F)n5ccnc5c4n3)cc2Cl)CC1", "note": "[Example 18, 6-(2,6-difluorophenyl)-2-((3-chloro-4-(4-methylpiperazin-1-yl)phenyl)amino)imidazo[1,2-b]pyrimido[4,5-d]pyridazin-5(6H)-one]", "values": [{"measurement": "IC50", "setting": "LoVo cells; LoVo cells, 3 d, MTT", "value": 579, "unit": "nM"}, {"measurement": "Inh. (%) of Wee1 kinase", "setting": "Wee1 kinase (h); C 1 μm", "value": 87, "unit": "%"}, {"measurement": "IC50", "setting": "NCI-H1299 cells; [3]", "value": 1080, "unit": "nM"}]}, {"smiles": "Cc1cc(Nc2ncc3c(=O)n(-c4c(C)cccc4F)n4ccnc4c3n2)cc(C)c1N1CCN(C)CC1", "note": "[Example 15, 6-(2-fluoro-6-methylphenyl)-2-((3,5-dimethyl-4-(4-methylpiperazin-1-yl)phenyl)amino) imidazo[1,2-b]pyrimido[4,5-d]pyridazin-5(6H)-one]", "values": [{"measurement": "IC50", "setting": "LoVo cells; LoVo cells, 3 d, MTT", "value": 832, "unit": "nM"}, {"measurement": "Inh. (%) of Wee1 kinase", "setting": "Wee1 kinase (h); C 1 μm", "value": 87, "unit": "%"}, {"measurement": "IC50", "setting": "NCI-H1299 cells; [3]", "value": 904, "unit": "nM"}]}, {"smiles": "Cc1cc(Nc2ncc3c(=O)n(-c4c(C)cccc4F)n4ccnc4c3n2)cc(Cl)c1N1CCN(C)CC1", "note": "[Example 52, 6-(2-fluoro-6-methylphenyl)-2-((3-chloro-5-methyl-4-(4-methylpiperazin-1-yl)phenyl)amino)imidazo[1,2-b]pyrimido[4,5-d]pyridazin-5(6H)-one]", "values": [{"measurement": "IC50", "setting": "LoVo cells; LoVo cells, 3 d, MTT", "value": 756, "unit": "nM"}, {"measurement": "Inh. (%) of Wee1 kinase", "setting": "Wee1 kinase (h); C 1 μm", "value": 78, "unit": "%"}, {"measurement": "IC50", "setting": "NCI-H1299 cells; [3]", "value": 809, "unit": "nM"}]}]}
